Like-named read-outs stand apart in the source and are kept apart here.
What was measured:
[1] = target: hSTING(R232) (Homo sapiens, UniProt Q86WV6, H232R); assay: Luciferase reporter assay in HEK293T-hSTING-Luciferase cells, R232 (wild type) human STING; type: cell-based; conditions: 20 hr stimulation, read-out: R232 human activity (EC50 range)
Method in brief: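 Clonal HEK293T cells stably expressing STING from a pUNO-1 plasmid plus an ISRE/ISG54-driven secreted luciferase reporter; 5×10^5 cells stimulated with compound for 20 hr. Supernatant luciferase read by luminescence, giving fold-induction over baseline and EC50.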

[2] = target: cynomolgus monkey STING protein (Macaca fascicularis, UniProt A0A2R3XZA6); assay: Luciferase reporter assay, cynomolgus monkey STING overexpressed in HEK293T cells; type: cell-based; conditions: cynomolgus monkey STING overexpressed in HEK293T cells; read-out: Cynomolgus monkey STING activity (EC50 range)
Method in brief: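 HEK293T cells overexpressing cynomolgus STING with a secreted luciferase reporter were stimulated with compound for 20 hr. Supernatant reporter activity was then measured by Quanti-Luc luminescence, and EC50 values were derived.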

[3] = target: hSTING(H232) (Homo sapiens, UniProt Q86WV6); assay: Luciferase reporter assay in HEK293T-hSTING-Luciferase cells, H232/REF polymorph; type: cell-based; conditions: H232/REF polymorph of human STING, EC50 range class
Excerpt: (§1) Stable Cell Line Generation • a) Stable STING expressing cells—Stable HEK293T STING-expressing cell lines were generated using plasmids purchased from Invivogen, CA, USA, that contain STING cDNA cloned into the pUNO-1 vector under hEF1-HTLV promoter and containing the Blasticidin selection cassette. The plasmids hSTING(R232), hSTING(H232), hSTING(HAQ) were directly procured from Invivogen while hSTING (AQ) and hSTING (Q) were derived from hSTING(HAQ) and hSTING (R232) plasmids respectively by using a PCR based site directed mutagenesis method. These vectors were individually transfected into HEK293T cells using Lipofectamine (Invitrogen) and transfected cells were selected under Blasticidin selection. These transfected cells were further subjected to clonal selection using the limiting dilution method to obtain clonally pure populations of HEK cells transfected with each of the above mentioned human STING variants. Only those clones were selected in which ligand independent activation of STING was minimal. • b) Stable Luciferase reporter gene expressing cells—Stable HEK293T Luciferase reporter gene expressing cell lines were generated using pCDNA4 plasmids under an IRF-inducible promoter. This promoter is comprised of five tandem interferon-stimulated response elements (ISRE) fused to an ISG54 minimal promoter. This vector was transfected into HEK293T cells using Lipofectamine (Invitrogen) and transfected cells were selected under Zeocin selection. These transfected cells were further subjected to clonal selection using the limiting dilution method to obtain clonally pure populations of HEK cells transfected the Luciferase reporter construct. Only those clones were selected in which ligand independent induction of luciferase was minimal.
(§2) 5×10^5 clonally selected HEK293T-hSTING-Luciferase cells were seeded in 384-well plates in growth medium and stimulated with novel compounds. After 20 hr of stimulation supernatant were removed and secretary reporter gene activity were measured using the Quanti-Luc detection system (Invivogen) on a Spectramax i3X luminometer.
(§3) In the tables below, EC50 value ranges for exemplary compounds are given.
(§4) Single nucleotide polymorphisms of human STING have been described, which can affect the functional potency of compounds that modulate the activity of the STING protein (see Yi et. al., PLoS One, October 2013, 8(10), e77846). The 5 major polymorphisms of human STING are shown in FIG. 1, with their prevalence in human populations indicated.
(§5) The tables below show the potency of selected compounds of the invention against the most common polymorphisms.

[4] = target: hSTING(HAQ) (Homo sapiens, UniProt Q86WV6, G230A/H232R/R293Q/R71H); assay: Luciferase reporter assay in HEK293T-hSTING-Luciferase cells, HAQ polymorph; type: cell-based; conditions: HAQ polymorph of human STING, EC50 range class
Excerpt: as §1, §2, §3, §4, §5

[5] = system: IRF pathway; assay: Reporter gene expression assay in THP1-Dual cells, IRF axis (secreted Lucia luciferase); type: cell-based, human; conditions: 20 hr stimulation, EC50 range class, read-out: THP-IRF activity
Experimental: (§6) THP1-Dual™ cells (Invivogen) were derived from the human THP-1 monocyte cell line by stable integration of two inducible reporter constructs. As a result, THP1-Dual™ cells allow the simultaneous study of the NF-κB pathway, by monitoring the activity of secreted SEAP, and the IRF pathway, by assessing the activity of a secreted luciferase (Lucia). 5×10^5 THP1-Dual™ cells were seeded in 384-well plates in growth medium and stimulated with novel compounds. After 20 hr of stimulation supernatants were removed and reporter proteins were readily measured in the cell culture supernatant using QUANTI-Blue™ (Invivogen), a SEAP detection reagent, and QUANTI-Luc™ (Invivogen), a luciferase detection reagent on a Spectramax i3X luminometer.
(§7) EC50 value ranges for exemplary compounds tested in the above assay are given.

[6] = system: NF-κB pathway; assay: Reporter gene expression assay in THP1-Dual cells, NFkB axis (secreted SEAP); type: cell-based, human; conditions: 20 hr stimulation, EC50 range class, read-out: THP-NFκB activity
Experimental: as §6, §7

Sequence of cynomolgus monkey STING protein (A0A2R3XZA6 entry or part of it): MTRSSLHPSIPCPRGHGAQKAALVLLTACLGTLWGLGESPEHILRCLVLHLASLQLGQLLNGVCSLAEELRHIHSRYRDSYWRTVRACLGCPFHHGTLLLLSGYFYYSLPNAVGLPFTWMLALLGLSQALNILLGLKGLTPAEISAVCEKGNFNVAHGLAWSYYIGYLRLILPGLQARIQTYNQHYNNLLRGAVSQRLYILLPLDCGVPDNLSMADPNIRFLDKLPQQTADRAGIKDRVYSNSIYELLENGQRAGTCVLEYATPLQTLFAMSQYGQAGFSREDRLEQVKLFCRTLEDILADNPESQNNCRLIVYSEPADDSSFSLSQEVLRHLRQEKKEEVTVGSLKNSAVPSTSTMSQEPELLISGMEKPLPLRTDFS
Sequence of hSTING(H232) (Q86WV6 whole entry): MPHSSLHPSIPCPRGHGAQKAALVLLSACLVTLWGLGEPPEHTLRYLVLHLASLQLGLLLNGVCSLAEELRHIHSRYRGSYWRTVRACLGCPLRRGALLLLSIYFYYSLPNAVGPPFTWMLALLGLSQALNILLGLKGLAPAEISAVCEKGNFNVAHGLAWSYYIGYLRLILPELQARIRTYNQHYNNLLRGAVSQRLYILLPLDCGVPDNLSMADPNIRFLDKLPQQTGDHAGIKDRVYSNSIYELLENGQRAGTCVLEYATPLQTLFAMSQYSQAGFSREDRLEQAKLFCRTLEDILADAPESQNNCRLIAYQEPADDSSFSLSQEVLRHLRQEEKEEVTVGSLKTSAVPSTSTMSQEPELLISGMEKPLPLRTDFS
Sequence of hSTING(HAQ) (Q86WV6 whole entry R71H/G230A/H232R/R293Q): as the sequence (Q86WV6 whole entry) above, with R71H, G230A, H232R, R293Q counted along it
Sequence of hSTING(R232) (Q86WV6 whole entry H232R): as the sequence (Q86WV6 whole entry) above, with H232R counted along it

| SMILES | EC50 [1] [nM] | EC50 [2] [nM] | EC50 [3] [nM] | EC50 [4] [nM] | EC50 ([5]; Homo sapiens) [nM] | EC50 ([6]; Homo sapiens) [nM] | EC50 [5] [nM] | EC50 [6] [nM] |
| --- | --- | --- | --- | --- | --- | --- | --- | --- |
| C[C@H]1c2ccc(C(=O)NCc3c(F)cc(F)cc3F)cc2N(Cc2c(F)cc(OCCCO)cc2F)C(=O)N1C [Example 81, (S)-1-(2,6-difluoro-4-(3-hydroxypropoxy)benzyl)-3,4-dimethyl-2-oxo-N-(2,4,6-trifluorobenzyl)-1,2,3,4-tetrahydroquinazoline-7-carboxamide] | < 1000 | < 1000 | < 1000 | < 1000 | < 1000 | < 1000 | – | – |
| C[C@H]1c2ccc(C(=O)NCc3c(F)cc(F)cc3F)cc2N(Cc2c(F)ccc(OCCCO)c2Cl)C(=O)N1C [Example 138, (S)-1-(2-Chloro-6-fluoro-3-(3-hydroxypropoxy)benzyl)-3,4-dimethyl-2-oxo-N-(2,4,6-trifluorobenzyl)-1,2,3,4-tetrahydroquinazoline-7-carboxamide] | < 1000 | < 1000 | < 1000 | < 1000 | < 1000 | < 1000 | – | – |
| C[C@H]1c2ccc(C(=O)NCc3c(F)cc(F)cc3F)cc2N(Cc2c(F)ccc(O)c2Cl)C(=O)N1C [Example 87, (S)-1-(2-Chloro-6-fluoro-3-hydroxybenzyl)-3,4-dimethyl-2-oxo-N-(2,4,6-trifluorobenzyl)-1,2,3,4-tetrahydroquinazoline-7-carboxamide] | < 1000 | < 1000 | < 1000 | < 1000 | < 1000 | < 1000 | – | – |
| COc1cnc(C)c(F)c1CN1C(=O)N(C)[C@@H](C)c2ccc(C(=O)NCc3c(F)cc(F)cc3F)cc21 [Example 296, (S)-1-((3-fluoro-5-methoxy-2-methylpyridin-4-yl)methyl)-3,4-dimethyl-2-oxo-N-(2,4,6-trifluorobenzyl)-1,2,3,4-tetrahydroquinazoline-7-carboxamide] | < 1000 | < 1000 | < 1000 | < 1000 | < 1000 | < 1000 | – | – |
| C[C@H]1c2ccc(C(=O)NCc3c(F)cc(F)cc3F)cc2N(Cc2cc(CO)ccc2F)C(=O)N1C (stereo in doubt) [Example 268, 1-(2-fluoro-5-(hydroxymethyl)benzyl)-3,4-dimethyl-2-oxo-N-(2,4,6-trifluorobenzyl)-1,2,3,4-tetrahydroquinazoline-7-carboxamide] | < 1000 | – | 1000 to 10000 | 1000 to 10000 | 1000 to 10000 | 1000 to 10000 | – | – |
| Cc1ccc(F)c(CN2C(=O)N(C)C(C)c3ccc(C(=O)NCc4c(F)cc(F)cc4F)cc32)n1 (centres unmarked) [Example 238, 1-((3-fluoro-6-methylpyridin-2-yl)methyl)-3,4-dimethyl-2-oxo-N-(2,4,6-trifluorobenzyl)-1,2,3,4-tetrahydroquinazoline-7-carboxamide] | < 1000 | – | 1000 to 10000 | 1000 to 10000 | 1000 to 10000 | 1000 to 10000 | – | – |
| CC1c2ncc(C(=O)NCc3c(F)cc(F)cc3F)cc2N(Cc2c(F)cccc2Cl)C(=O)N1C (centres unmarked) [Example 148, 1-(2-Chloro-6-fluorobenzyl)-3,4-dimethyl-2-oxo-N-(2,4,6-trifluorobenzyl)-1,2,3,4-tetrahydropyrido[3,2-d]pyrimidine-7-carboxamide] | < 1000 | – | < 1000 | < 1000 | 1000 to 10000 | 1000 to 10000 | – | – |
| Cc1cc(CN2C(=O)N(C)C(C)c3ccc(C(=O)NCc4c(F)cc(F)cc4F)cc32)ccn1 (centres unmarked) [Example 208, 3,4-dimethyl-1-((2-methylpyridin-4-yl)methyl)-2-oxo-N-(2,4,6-trifluorobenzyl)-1,2,3,4-tetrahydroquinazoline-7-carboxamide] | < 1000 | – | < 1000 | < 1000 | 1000 to 10000 | 1000 to 10000 | – | – |

Other lines, results leading:

| EC50 [1] [nM] | EC50 [2] [nM] | EC50 [3] [nM] | EC50 [4] [nM] | EC50 ([5]; Homo sapiens) [nM] | EC50 ([6]; Homo sapiens) [nM] | EC50 [5] [nM] | EC50 [6] [nM] | SMILES |
| --- | --- | --- | --- | --- | --- | --- | --- | --- |
| < 1000 | < 1000 | < 1000 | < 1000 | < 1000 | < 1000 | – | – | C[C@H]1c2ccc(C(=O)NCc3c(F)cc(F)cc3F)cc2N(Cc2c(N)cccc2F)C(=O)N1C [Example 182, (S)-1-(2-amino-6-fluorobenzyl)-3,4-dimethyl-2-oxo-N-(2,4,6-trifluorobenzyl)-1,2,3,4-tetrahydroquinazoline-7-carboxamide] |
| < 1000 | < 1000 | < 1000 | < 1000 | – | – | < 1000 | < 1000 | COc1cccc(F)c1CN1C(=O)N(C)C(C)c2ccc(C(=O)NCc3c(F)cc(F)cc3F)cc21 (centres unmarked) [Example 154, 1-(2-fluoro-6-methoxybenzyl)-3,4-dimethyl-2-oxo-N-(2,4,6-trifluorobenzyl)-1,2,3,4-tetrahydroquinazoline-7-carboxamide] |
| < 1000 | < 1000 | < 1000 | < 1000 | < 1000 | < 1000 | – | – | COc1ccc(F)c(F)c1CN1C(=O)N(C)[C@@H](C)c2ccc(C(=O)NCc3c(F)cc(F)cc3F)cc21 [Example 241, (S)-1-(2,3-difluoro-6-methoxybenzyl)-3,4-dimethyl-2-oxo-N-(2,4,6-trifluorobenzyl)-1,2,3,4-tetrahydroquinazoline-7-carboxamide] |
| < 1000 | < 1000 | < 1000 | < 1000 | < 1000 | < 1000 | – | – | COc1ccc(F)c(CN2C(=O)N(C)[C@@H](C)c3ccc(C(=O)NCc4c(F)cc(F)cc4F)cc32)c1Cl [Example 88, (S)-1-(2-Chloro-6-fluoro-3-methoxybenzyl)-3,4-dimethyl-2-oxo-N-(2,4,6-trifluorobenzyl)-1,2,3,4-tetrahydroquinazoline-7-carboxamide] |
| – | < 1000 | < 1000 | < 1000 | < 1000 | < 1000 | – | – | CC1c2ccc(C(=O)NCc3c(F)cc(F)cc3F)cc2N(Cc2c(O)cccc2F)C(=O)N1C (centres unmarked) [Example 171, 1-(2-fluoro-6-hydroxybenzyl)-3,4-dimethyl-2-oxo-N-(2,4,6-trifluorobenzyl)-1,2,3,4-tetrahydroquinazoline-7-carboxamide] |
| – | < 1000 | < 1000 | < 1000 | < 1000 | < 1000 | – | – | CC1c2ccc(C(=O)NCc3c(F)cc(F)cc3F)cc2N(Cc2c(F)cccc2F)C(=O)N1C (centres unmarked) [Example 206, 1-(2,6-difluorobenzyl)-3,4-dimethyl-2-oxo-N-(2,4,6-trifluorobenzyl)-1,2,3,4-tetrahydroquinazoline-7-carboxamide] |
| < 1000 | – | < 1000 | < 1000 | < 1000 | < 1000 | – | – | COc1cccc(F)c1CN1C(=O)N(C)C(C)c2ccc(C(=O)NCc3c(F)cc(F)cc3F)cc21 (centres unmarked) [Example 153, 1-(2-fluoro-6-methoxybenzyl)-3,4-dimethyl-2-oxo-N-(2,4,6-trifluorobenzyl)-1,2,3,4-tetrahydroquinazoline-7-carboxamide] |

Reference: patent US11571423B2, “Small molecule modulators of human sting” (Curadev Pharma Limited, priority 2017, dated 2023)
